Entries after “also recorded” stand apart in the source; their conditions may differ. Read-outs that look alike come from different tables or passages of the source. Blank lines part the entries; values can stand above or below the compound they belong to.
Experiments:
[1] = target: T1, histamine receptor subtype 1 (H1R) (Homo sapiens, UniProt P35367); assay: Antagonist pretreatment against the histamine-induced DMR signal in A431 cells; type: cell-based; set-up: endogenous in cells; host or cells: A431 (human epidermoid carcinoma), quiescent after serum starvation; settings: pretreatment of A431 with compound at 1 μM
T1 sequence (P35367 whole entry): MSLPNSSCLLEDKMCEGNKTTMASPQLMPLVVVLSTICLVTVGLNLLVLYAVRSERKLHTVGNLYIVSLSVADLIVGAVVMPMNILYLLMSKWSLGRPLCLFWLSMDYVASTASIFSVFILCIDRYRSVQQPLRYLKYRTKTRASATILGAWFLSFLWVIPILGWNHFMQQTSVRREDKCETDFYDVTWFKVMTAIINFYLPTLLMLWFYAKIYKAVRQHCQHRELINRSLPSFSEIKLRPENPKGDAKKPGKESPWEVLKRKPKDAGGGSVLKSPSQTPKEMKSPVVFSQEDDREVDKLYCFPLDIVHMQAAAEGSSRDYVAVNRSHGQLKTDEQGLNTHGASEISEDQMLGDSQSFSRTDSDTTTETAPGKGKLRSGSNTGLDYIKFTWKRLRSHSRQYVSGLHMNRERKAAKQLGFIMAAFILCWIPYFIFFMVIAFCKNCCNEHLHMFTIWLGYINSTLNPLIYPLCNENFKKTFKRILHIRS

[2] = tested on: endogenous receptors in A431 cells; assay: LOPAC library agonist screening with biosensor cellular assay (DMR); type: cell-based, human; settings: A431 cells; compound at 1 microM; real time kinetic
Method: (§1) Corning® Epic® wavelength interrogation system was used.
Furthermore, a ligand-induced DMR is a real time kinetic response containing many useful parameters (e.g., phases, amplitudes and kinetics) for analyzing ligand pharmacology. The LOPAC library was used to screen agonists for endogenous receptors in A431 cells using real time kinetic measurements.
First, the response in terms of wavelength shift between before and 2 min after stimulation was calculated.
Second, the responses in terms of wavelength shift between before and 50 min after stimulation were calculated.
Third, the responses in terms of wavelength shift between 2 min and 50 min after stimulation were calculated. The difference in resonant wavelength between the two time points was plotted as a function of compounds (FIG. 8).

[3] = target: T1, histamine receptor subtype 1 (H1R); assay: Dual receptor-specific antagonist screening (LOPAC), histamine response; type: cell-based; set-up: endogenous in cells; host or cells: A431 (human epidermoid carcinoma), quiescent after serum starvation
[4] = target: T2, β2-adrenergic receptor (β2AR) (Homo sapiens, UniProt P07550); assay: Dual receptor-specific antagonist screening (LOPAC), epinephrine response; type: cell-based; set-up: A431 cells endogenously express both PAR1 and β2AR; endogenous in cells; host or cells: A431 (human epidermoid carcinoma), quiescent after serum starvation
[5] = target: T2, β2-adrenergic receptor (β2AR); settings: co-stimulation with 2 nM epinephrine and 1 μM histamine; high doses
[6] = target: T2, β2-adrenergic receptor (β2AR); settings: for type of DMR signal induced: A431 cells, 2 nanomolar in b161/b162
Source text: as §1
A431 endogenously expresses large numbers of the β2AR, but neither β1 nor β3-ARs. […] The DMR signal consists of a small decreased signal (i.e., N-DMR) with a short duration, followed by an increased signal (i.e., P-DMR) to an elevated level.

[7] = target: T1, histamine receptor subtype 1 (H1R); settings: quiescent A431 cells
[8] = target: T1, histamine receptor subtype 1 (H1R)
Source text: as §1
To test this possibility, a desensitization assay was used.

[9] = target: T3, protease activated receptor subtype 1, PAR1 (Homo sapiens, UniProt P25116); assay: RWG biosensor DMR assay, SFLLR-amide stimulation of A431 cells; type: cell-based; settings: 1 micromolar
T3 construct: A431 cells endogenously express both PAR1 and β2AR; endogenous in cells; host or cells: A431 (human epidermoid carcinoma)
T3 sequence (P25116 22-425): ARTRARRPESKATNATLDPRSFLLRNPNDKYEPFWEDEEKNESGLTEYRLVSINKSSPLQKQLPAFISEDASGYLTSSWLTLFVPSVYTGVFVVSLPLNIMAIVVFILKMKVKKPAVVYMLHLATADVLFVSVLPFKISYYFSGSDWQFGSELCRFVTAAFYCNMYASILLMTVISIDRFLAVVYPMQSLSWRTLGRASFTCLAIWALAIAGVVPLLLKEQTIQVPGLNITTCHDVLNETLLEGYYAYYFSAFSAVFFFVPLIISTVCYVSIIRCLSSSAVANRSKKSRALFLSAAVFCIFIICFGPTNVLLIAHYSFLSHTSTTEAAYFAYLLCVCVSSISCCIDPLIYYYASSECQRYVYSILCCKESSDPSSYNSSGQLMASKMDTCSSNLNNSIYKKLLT
Source text: as §1
It is widely believed that GPCR signaling proceeds through a series of highly regulated spatial and temporal events besides the production and regulations of second messengers such as Ca^2+ and cAMP. […] The label-free optical biosensors enable the measurement of an integrated cellular response relating to ligand-induced dynamic mass redistribution in cells within the detection zone of the biosensor, offering a novel readout for receptor biology and ligand pharmacology.
FIG. 2 provide examples of RWG biosensor-based cell assays against two classes of G protein-coupled receptors. […] A431 cells endogenously express both PAR1 and β2AR. […] This is consistent with the known signaling pathways mediated through each receptor individually, i.e., PAR1 activation leads to a Gq pathway, while β2AR activation leads to a Gs pathway. […] In FIGS. 2b, 2c and 2d, the error bar at each time point was also included. One possible explanation is that distinct classes of GPCRs can mediate signaling through distinct routes (e.g., “channeling” or “tunneling”), and the cells can respond synergistically to co-stimulation with two agonists targeting two different receptors.

[10] = compound 1 microM for one hour, then cocktail of epinephrine and histamine

Compound: CN(C)CCC(c1ccc(Br)cc1)c1ccccn1 (racemic) [(±)-brompheniramine]
effect on the DMR signal induced by 1 μM histamine [1]: completely inhibited | ligand-induced DMR signal in agonist screening [2]: did not lead to any DMR signal | effect on the histamine response in the co-stimulation [3]: completely or almost completely attenuated

Compound: c1cc(CN2CCCCC2)cc(OCCCNc2nc3ccccc3s2)c1 [SKF95282]
ligand-induced DMR signal in agonist screening [2]: DMR that was similar to pindolol | effect on the epinephrine response in the co-stimulation [4, 10]: partial desensitization

Compound: CN(C)CCOC(C)(c1ccccc1)c1ccccn1 (stereo not shown) [doxylamine]
ligand-induced DMR signal in agonist screening [2]: did not lead to any DMR signal | effect on the histamine response in the co-stimulation [3, 10]: completely or almost completely attenuated

Compound: CNC[C@H](O)c1ccc(O)c(O)c1 [epinephrine]
effect of pretreatment on the epinephrine response [5]: completely inhibited | type of DMR signal induced [6]: Gs-type DMR signal | type of DMR signal induced ([6]; listed as Epinephrine): biphasic Gs-type DMR response | Hill slope of the epinephrine DMR response ([6]; quiescent A431 cells, n=10): 0.95

Compound: NC(N)=Nc1nc(CSCCC(N)=NS(N)(=O)=O)cs1 [famotidine]
ligand-induced DMR signal in agonist screening [2]: DMR that was similar to pindolol | effect on the epinephrine response in the co-stimulation [4, 10]: partial desensitization

Compound: CNCCC=C1c2ccccc2CCc2ccccc21 [nortriptyline]
effect on the epinephrine response in the co-stimulation [4]: little effect

Compound: CC(COc1ccccc1)N(CCCl)Cc1ccccc1 (stereo not shown) [phenoxybenzamine]
effect on the histamine response in the co-stimulation [3]: almost completely inhibited | effect on the epinephrine response in the co-stimulation [4, 10]: little effect

Compound: S=C(NC1CCCCC1)N1CCC(c2cnc[nH]2)CC1 [thioperamide]
effect on the DMR signal induced by 1 μM histamine [1]: did not have obvious impact

Compound: (S)-(−)-propafenone
ligand-induced DMR signal in agonist screening [2]: did not result in any apparent DMR signals | effect on the epinephrine response in the co-stimulation [4, 10]: inhibited or partially attenuated

Compound: SFLLR-amide
type of DMR signal induced [9]: Gq-type DMR signal

The next lines start with results.

effect on the DMR signal induced by 1 μM histamine [1]: did not have obvious impact
Compound: CN(C)CCCCSC(=N)N [SKF91488]

effect on the histamine response in the co-stimulation [3, 10]: little impact | effect on the epinephrine response in the co-stimulation [4, 10]: inhibited or partially attenuated
Compound: CCc1ccccc1OC[C@@H](O)CN[C@H]1CCCc2ccccc21 [SR 59230A]
ligand-induced DMR signal in agonist screening [2]: did not result in any apparent DMR signals

effect on the epinephrine response in the co-stimulation [4, 10]: little effect
Compound: CN(C)CCC=C1c2ccccc2CCc2ccccc21 [amitriptyline]

effect on the epinephrine response in the co-stimulation [4, 10]: little effect
Compound: Clc1ccc2c(c1)C(N1CCNCC1)=Nc1ccccc1O2 [amoxapine]

effect on the DMR signal induced by 1 μM histamine [1]: completely inhibited
Compound: Clc1ccc(Cn2c(CN3CCCC3)nc3ccccc32)cc1 [clemizole]
ligand-induced DMR signal in agonist screening [2]: did not lead to any DMR signal | effect on the histamine response in the co-stimulation [3, 10]: completely or almost completely attenuated

Hill coefficient of the histamine saturation curve ([7]; n=6): 1.87 | Hill slope for inhibition of the histamine response [8]: 1.4 | effect of pretreatment on the histamine response [8]: completely inhibited | effect of pretreatment on the epinephrine response [5]: slightly attenuated | effect on the epinephrine response in the co-stimulation [4, 10]: but not to epinephrine
Compound: NCCc1c[nH]cn1 [histamine]
type of DMR (optical) signal induced [7]: dose-dependent and saturable Gq-type optical signal | ligand-induced DMR signal in agonist screening [2]: biphasic Gq-type DMR signal; also recorded: Gq-like DMR signal | effect on the histamine response in the co-stimulation [3]: complete desensitization

effect on the epinephrine response in the co-stimulation [4, 10]: little effect
Compound: CNCCCC12CCC(c3ccccc31)c1ccccc12 [maprotiline]

effect on the histamine response in the co-stimulation [3, 10]: partial inhibition
Compound: CN(C)CCC(c1ccccc1)c1ccccn1 (stereo not shown) [pheniramine]
ligand-induced DMR signal in agonist screening [2]: did not lead to any DMR signal

effect on the DMR signal induced by 1 μM histamine [1]: completely inhibited
Compound: Cc1ccc(/C(=C\CN2CCCC2)c2ccccn2)cc1 [triprolidine]
ligand-induced DMR signal in agonist screening [2]: did not lead to any significant DMR signal | effect on the histamine response in the co-stimulation [3, 10]: completely or almost completely attenuated

From patent US8759013B2, “Dual-target biosensor cell assays” (Corning Incorporated, priority 2008, dated 2014)
